Experimental data: article PMC10569036

Columns and labels:
[1] = shake flask on a mixture of 185; loss from the water phase only; LC-QTOF peak areas; settings: room
[2] = shake flask on a mixture of 185; loss from the water phase only; LC-Orbitrap peak areas; settings: room

OCCN(CCO)c1ccccc1
log partition 1-octanol / HPLC water, unbuffered, traces of methanol / DMSO [1]: 0.7171 log10
log partition butyl acetate / HPLC water, unbuffered, traces of methanol / DMSO [1]: 0.3605 log10
log partition chloroform / HPLC water, unbuffered, traces of methanol / DMSO [1]: -0.02211 log10
log partition cyclohexane / HPLC water, unbuffered, traces of methanol / DMSO [1]: -1.946 log10
log partition dichloromethane / HPLC water, unbuffered, traces of methanol / DMSO [1]: 0.1152 log10
log partition n-hexane / HPLC water, unbuffered, traces of methanol / DMSO [1]: -1.82 log10
log partition n-octane / HPLC water, unbuffered, traces of methanol / DMSO [1]: -2.014 log10
log partition n-undecane / HPLC water, unbuffered, traces of methanol / DMSO [1]: -1.783 log10
log partition oleylalcohol / HPLC water, unbuffered, traces of methanol / DMSO [1]: 0.6347 log10
log partition toluene / HPLC water, unbuffered, traces of methanol / DMSO [1]: -1.086 log10
log partition 1-octanol / HPLC water, unbuffered, traces of methanol / DMSO [2]: 0.493 log10
log partition butyl acetate / HPLC water, unbuffered, traces of methanol / DMSO [2]: 0.5439 log10
log partition chloroform / HPLC water, unbuffered, traces of methanol / DMSO [2]: 0.2882 log10
log partition cyclohexane / HPLC water, unbuffered, traces of methanol / DMSO [2]: -0.9006 log10
log partition dichloromethane / HPLC water, unbuffered, traces of methanol / DMSO [2]: 0.4782 log10
log partition n-hexane / HPLC water, unbuffered, traces of methanol / DMSO [2]: -1.209 log10
log partition n-octane / HPLC water, unbuffered, traces of methanol / DMSO [2]: -0.9336 log10
log partition n-undecane / HPLC water, unbuffered, traces of methanol / DMSO [2]: -1.048 log10
log partition oleylalcohol / HPLC water, unbuffered, traces of methanol / DMSO [2]: 0.1818 log10
log partition toluene / HPLC water, unbuffered, traces of methanol / DMSO [2]: -0.4224 log10

NC(=O)Nc1ccc(Cl)cc1
log partition 1-octanol / HPLC water, unbuffered, traces of methanol / DMSO [1]: 1.214 log10
log partition butyl acetate / HPLC water, unbuffered, traces of methanol / DMSO [1]: 0.7995 log10
log partition chloroform / HPLC water, unbuffered, traces of methanol / DMSO [1]: -0.1363 log10
log partition dichloromethane / HPLC water, unbuffered, traces of methanol / DMSO [1]: -0.2421 log10
log partition oleylalcohol / HPLC water, unbuffered, traces of methanol / DMSO [1]: 1.051 log10
log partition toluene / HPLC water, unbuffered, traces of methanol / DMSO [1]: -0.9053 log10
log partition 1-octanol / HPLC water, unbuffered, traces of methanol / DMSO [2]: 0.591 log10
log partition butyl acetate / HPLC water, unbuffered, traces of methanol / DMSO [2]: 0.6709 log10
log partition chloroform / HPLC water, unbuffered, traces of methanol / DMSO [2]: -0.4936 log10
log partition dichloromethane / HPLC water, unbuffered, traces of methanol / DMSO [2]: -0.3897 log10
log partition oleylalcohol / HPLC water, unbuffered, traces of methanol / DMSO [2]: 0.6552 log10
log partition toluene / HPLC water, unbuffered, traces of methanol / DMSO [2]: -1.194 log10

O=S(=O)(O)C(F)(F)F
log partition 1-octanol / HPLC water, unbuffered, traces of methanol / DMSO [1]: -1.49 log10
log partition butyl acetate / HPLC water, unbuffered, traces of methanol / DMSO [1]: -1.234 log10
log partition chloroform / HPLC water, unbuffered, traces of methanol / DMSO [1]: 1.635 log10
log partition cyclohexane / HPLC water, unbuffered, traces of methanol / DMSO [1]: -0.7044 log10
log partition dichloromethane / HPLC water, unbuffered, traces of methanol / DMSO [1]: 1.509 log10
log partition n-hexane / HPLC water, unbuffered, traces of methanol / DMSO [1]: -0.8208 log10
log partition n-octane / HPLC water, unbuffered, traces of methanol / DMSO [1]: -0.9229 log10
log partition n-undecane / HPLC water, unbuffered, traces of methanol / DMSO [1]: -0.955 log10
log partition oleylalcohol / HPLC water, unbuffered, traces of methanol / DMSO [1]: -1.56 log10
log partition toluene / HPLC water, unbuffered, traces of methanol / DMSO [1]: -0.8212 log10

Oc1c(Cl)cc(Cl)c(Cl)c1Cc1c(O)c(Cl)cc(Cl)c1Cl
log partition 1-octanol / HPLC water, unbuffered, traces of methanol / DMSO [1]: 3.536 log10
log partition butyl acetate / HPLC water, unbuffered, traces of methanol / DMSO [1]: 2.622 log10
log partition chloroform / HPLC water, unbuffered, traces of methanol / DMSO [1]: 2.343 log10
log partition cyclohexane / HPLC water, unbuffered, traces of methanol / DMSO [1]: 2.027 log10
log partition dichloromethane / HPLC water, unbuffered, traces of methanol / DMSO [1]: 1.996 log10
log partition n-hexane / HPLC water, unbuffered, traces of methanol / DMSO [1]: 1.5 log10
log partition n-octane / HPLC water, unbuffered, traces of methanol / DMSO [1]: 1.932 log10
log partition n-undecane / HPLC water, unbuffered, traces of methanol / DMSO [1]: 2.251 log10
log partition oleylalcohol / HPLC water, unbuffered, traces of methanol / DMSO [1]: 2.088 log10
log partition toluene / HPLC water, unbuffered, traces of methanol / DMSO [1]: 2.305 log10
